Measurements: US20240335420A1, “N-ACYLHYDRAZONE COMPOUNDS CAPABLE OF INHIBITING NAV 1.7 AND/OR NAV 1.8, PROCESSES FOR THE PREPARATION THEREOF, COMPOSITIONS, USES, METHODS FOR TREATMENT USING SAME AND KITS” (EUROFARMA LABORATÓRIOS S.A., priority 2021, published 2024)

Columns and labels:
Type in all cases: cell-based
[1] = molecular target: T1, human sodium channels Nav 1.8 (Homo sapiens (Human), UniProt Q9Y5Y9); assay: Automated whole-cell voltage-clamp (ScreenPatch 384P), Nav 1.8 sodium current, Protocol 2; conditions: Protocol 2 (holding −100 mV, inactivation step −40 mV 8 s, 0.05 Hz); CHO cells expressing human Nav 1.8; read-out: Nav1.8 IC50
T1 sequence (Q9Y5Y9 whole entry): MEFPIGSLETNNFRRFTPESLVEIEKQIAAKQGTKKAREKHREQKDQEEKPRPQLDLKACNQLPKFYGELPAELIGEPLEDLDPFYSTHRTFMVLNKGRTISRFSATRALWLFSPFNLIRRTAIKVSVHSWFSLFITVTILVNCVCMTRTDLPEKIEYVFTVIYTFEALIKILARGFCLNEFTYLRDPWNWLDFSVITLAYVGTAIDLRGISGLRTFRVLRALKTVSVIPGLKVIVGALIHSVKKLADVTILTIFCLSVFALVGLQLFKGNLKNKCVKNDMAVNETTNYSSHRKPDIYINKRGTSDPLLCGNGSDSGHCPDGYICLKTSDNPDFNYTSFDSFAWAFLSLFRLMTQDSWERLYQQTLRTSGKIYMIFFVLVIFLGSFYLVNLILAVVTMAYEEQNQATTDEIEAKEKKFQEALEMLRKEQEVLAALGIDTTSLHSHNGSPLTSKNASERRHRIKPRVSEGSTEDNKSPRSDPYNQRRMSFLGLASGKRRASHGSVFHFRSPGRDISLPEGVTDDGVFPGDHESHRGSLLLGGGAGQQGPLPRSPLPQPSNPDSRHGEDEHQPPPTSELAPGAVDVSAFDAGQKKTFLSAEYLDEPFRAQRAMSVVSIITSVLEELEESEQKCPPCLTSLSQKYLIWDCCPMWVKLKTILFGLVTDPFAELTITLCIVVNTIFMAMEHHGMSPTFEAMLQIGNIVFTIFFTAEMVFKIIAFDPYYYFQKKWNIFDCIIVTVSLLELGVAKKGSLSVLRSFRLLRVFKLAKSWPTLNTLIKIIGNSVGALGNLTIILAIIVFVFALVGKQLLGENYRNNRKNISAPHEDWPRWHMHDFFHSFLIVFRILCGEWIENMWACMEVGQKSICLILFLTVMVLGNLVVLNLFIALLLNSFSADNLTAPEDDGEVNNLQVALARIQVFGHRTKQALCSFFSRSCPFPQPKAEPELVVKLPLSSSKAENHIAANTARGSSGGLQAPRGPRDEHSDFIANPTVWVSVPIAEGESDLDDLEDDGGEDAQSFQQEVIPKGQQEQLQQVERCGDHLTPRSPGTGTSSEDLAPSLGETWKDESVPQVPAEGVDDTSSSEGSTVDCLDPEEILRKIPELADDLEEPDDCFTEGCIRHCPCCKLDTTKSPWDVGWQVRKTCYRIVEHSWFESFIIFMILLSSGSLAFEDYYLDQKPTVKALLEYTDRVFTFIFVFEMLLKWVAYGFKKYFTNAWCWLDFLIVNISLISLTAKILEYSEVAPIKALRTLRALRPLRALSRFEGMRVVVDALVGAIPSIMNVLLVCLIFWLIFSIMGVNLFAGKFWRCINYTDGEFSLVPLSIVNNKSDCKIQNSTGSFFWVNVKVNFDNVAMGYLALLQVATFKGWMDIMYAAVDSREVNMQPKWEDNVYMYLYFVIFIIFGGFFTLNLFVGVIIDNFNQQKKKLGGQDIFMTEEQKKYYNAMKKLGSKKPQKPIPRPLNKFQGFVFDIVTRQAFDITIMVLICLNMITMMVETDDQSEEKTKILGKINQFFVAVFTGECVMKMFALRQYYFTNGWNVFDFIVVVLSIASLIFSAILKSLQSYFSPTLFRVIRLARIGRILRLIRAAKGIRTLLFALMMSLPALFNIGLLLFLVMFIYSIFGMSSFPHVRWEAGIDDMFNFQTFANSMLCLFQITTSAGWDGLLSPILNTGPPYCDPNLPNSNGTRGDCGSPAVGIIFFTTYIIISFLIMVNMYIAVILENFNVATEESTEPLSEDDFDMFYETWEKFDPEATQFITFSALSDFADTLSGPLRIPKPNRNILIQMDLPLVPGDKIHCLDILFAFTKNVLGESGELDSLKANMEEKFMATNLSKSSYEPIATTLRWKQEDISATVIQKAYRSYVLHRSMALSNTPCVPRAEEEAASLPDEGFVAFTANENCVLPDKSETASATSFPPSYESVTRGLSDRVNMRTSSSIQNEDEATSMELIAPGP
Description: (§1) Biological assays were performed on Chinese hamster ovary (CHO) cells expressing the human sodium channels Nav 1.8 and Nav 1.7 stably.
(§2) The experimental voltage-clamp protocol using the whole cell configuration was established on the automated ScreenPatch® 384P platform (SP384PE, Nanion Technologies, Livingston, NJ) and recording of the results was performed with a Nanion 384-well Patch Clamp chip (NPC) (Nanion Technologies, Livingston, NJ).
(§3) Compounds of Formula (I), were diluted in eight concentrations in the extracellular solution composed of physiological saline, buffered with HEPES (mM): NaCl, 137; KCl, 4; CaCl2, 3.8; MgCl2, 1; HEPES, 10; Glucose, 10; pH 7.4. The […], 50; CsF, 90; MgCl2, 5; EGTA, 5; HEPES, 10; pH 7.2. The duration of exposure of each compound with the cells expressing Nav 1.7 or Nav 1.8 was at least five minutes and the assays were performed at room temperature.
(§4) The measurements of the sodium currents of Nav 1.8 and Nav 1.7 were obtained using the voltage protocols described below: • Protocol 1: A holding voltage of −90 mV was established followed by a voltage phase of 200 ms to −120 mV, followed by a voltage step of 10 mV for 1 second for Nav 1.8 or 0 mV for Nav 1.7, followed by a step of −100 mV for 20 ms, followed by a step of 20 ms for 10 mV for Nav 1.8 or 0 mV for Nav 1.7 (TP1A) before returning to the holding voltage of −90 mV. • Protocol 2: A holding voltage of −100 mV was established followed by an inactivation voltage step at −40 mV for 8 seconds, followed by a −100 mV step for […], followed by a 20 ms step for 10 mV for Nav 1.8 or 0 mV for Nav 1.7 (TP1A) before returning to the holding voltage of −100 mV.
(§5) Protocols were repeated at a frequency of 0.1 Hz (Protocol 1) or 0.05 Hz (Protocol 2) and current amplitude was quantified over the TP1A phase log. The variation in the peak amplitude of the current was evaluated according to the Formula described below, after exposure of the cells expressing the channels, at each concentration of the different compounds:
(§6) [formula] • where |TP1A, basal, and |TP1A, molecule represent the entry peaks of sodium currents into TP1A prior to exposure to the compound and in the presence of the compound, respectively.
(§7) The decrease in peak current amplitude, after exposure of the cells to the compounds, was used to calculate the percent relative blocking of the channels relative to the positive control according to the Formula below:
(§8) [formula] • where % V and % CP represent the averages of the values of current inhibition with a vehicle (DMSO) and positive controls, respectively. The sodium currents of the positive control were considered as 100%.
(§9) [formula] • where [Test] represents the concentration of the evaluated molecule, IC50 is the concentration of the compound that generates half of the maximum inhibition, N is the Hill's coefficient and % Block′ is the percentage of the sodium channel current (Nav 1.8 and Nav 1.7) inhibited at each concentration of the evaluated molecule. Data were obtained by non-linear least squares regression with XLfit for Excel (Microsoft, Redmond, WA).
(§10) Compounds were tested in at least one assay to obtain the IC50 value.

[2] = molecular target: T2, human sodium channels Nav 1.7 (Homo sapiens (Human), UniProt Q15858); assay: Automated whole-cell voltage-clamp (ScreenPatch 384P), Nav 1.7 sodium current, Protocol 2; conditions: Protocol 2 (holding −100 mV, inactivation step −40 mV 8 s, 0.05 Hz); CHO cells expressing human Nav 1.7; read-out: Nav1.7 IC50
T2 sequence (Q15858 whole entry): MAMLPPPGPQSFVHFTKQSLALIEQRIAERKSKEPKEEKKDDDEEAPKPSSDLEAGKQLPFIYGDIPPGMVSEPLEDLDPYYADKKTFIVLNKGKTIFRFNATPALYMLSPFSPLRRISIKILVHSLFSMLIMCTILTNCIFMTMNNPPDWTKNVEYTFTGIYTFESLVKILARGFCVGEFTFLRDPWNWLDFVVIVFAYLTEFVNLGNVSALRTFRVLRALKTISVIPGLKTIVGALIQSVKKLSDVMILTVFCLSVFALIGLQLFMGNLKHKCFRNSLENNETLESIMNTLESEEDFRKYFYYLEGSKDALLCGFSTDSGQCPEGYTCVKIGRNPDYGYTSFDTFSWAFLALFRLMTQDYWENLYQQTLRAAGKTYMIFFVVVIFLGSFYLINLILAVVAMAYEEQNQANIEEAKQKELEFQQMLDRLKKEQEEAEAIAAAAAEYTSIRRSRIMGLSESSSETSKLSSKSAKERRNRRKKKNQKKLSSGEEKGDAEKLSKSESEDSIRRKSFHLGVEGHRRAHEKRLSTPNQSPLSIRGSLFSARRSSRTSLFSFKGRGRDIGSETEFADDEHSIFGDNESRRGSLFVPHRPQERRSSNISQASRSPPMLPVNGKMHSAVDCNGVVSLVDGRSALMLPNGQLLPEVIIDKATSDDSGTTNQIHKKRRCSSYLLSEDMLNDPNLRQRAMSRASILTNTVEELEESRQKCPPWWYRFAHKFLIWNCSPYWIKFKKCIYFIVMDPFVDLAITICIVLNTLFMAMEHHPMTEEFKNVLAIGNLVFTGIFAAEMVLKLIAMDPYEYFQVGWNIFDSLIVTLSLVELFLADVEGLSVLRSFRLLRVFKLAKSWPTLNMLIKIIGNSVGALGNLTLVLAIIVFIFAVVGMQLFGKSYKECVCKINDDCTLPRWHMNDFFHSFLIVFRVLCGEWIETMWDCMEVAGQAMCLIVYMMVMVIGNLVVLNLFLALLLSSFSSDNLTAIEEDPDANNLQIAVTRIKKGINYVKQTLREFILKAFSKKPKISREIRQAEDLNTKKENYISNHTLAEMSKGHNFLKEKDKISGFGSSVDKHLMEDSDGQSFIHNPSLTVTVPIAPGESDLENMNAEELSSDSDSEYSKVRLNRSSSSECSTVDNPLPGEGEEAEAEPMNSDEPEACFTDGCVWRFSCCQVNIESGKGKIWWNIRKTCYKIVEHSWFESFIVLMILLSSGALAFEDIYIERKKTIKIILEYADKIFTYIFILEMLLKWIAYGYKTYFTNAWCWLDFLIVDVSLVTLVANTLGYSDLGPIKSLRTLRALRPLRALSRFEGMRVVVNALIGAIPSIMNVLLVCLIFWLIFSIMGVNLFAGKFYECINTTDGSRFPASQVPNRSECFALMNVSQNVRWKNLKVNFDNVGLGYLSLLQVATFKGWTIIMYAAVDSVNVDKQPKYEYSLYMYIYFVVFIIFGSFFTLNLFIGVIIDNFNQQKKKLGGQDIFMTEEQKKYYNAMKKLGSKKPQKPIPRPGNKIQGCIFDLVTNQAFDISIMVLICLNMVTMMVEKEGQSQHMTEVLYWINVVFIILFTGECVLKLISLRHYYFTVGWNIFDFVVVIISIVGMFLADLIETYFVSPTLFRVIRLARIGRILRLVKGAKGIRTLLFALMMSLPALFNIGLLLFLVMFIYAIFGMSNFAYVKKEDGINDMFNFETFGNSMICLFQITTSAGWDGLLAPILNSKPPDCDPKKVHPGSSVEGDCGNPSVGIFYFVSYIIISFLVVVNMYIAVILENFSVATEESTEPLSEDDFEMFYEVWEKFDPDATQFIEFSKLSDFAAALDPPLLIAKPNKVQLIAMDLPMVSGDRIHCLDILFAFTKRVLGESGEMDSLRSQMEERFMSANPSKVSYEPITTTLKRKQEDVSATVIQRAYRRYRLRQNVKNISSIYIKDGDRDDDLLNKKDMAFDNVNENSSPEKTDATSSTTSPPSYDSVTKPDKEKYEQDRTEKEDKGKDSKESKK
Description: as §1, §2, §3, §4, §5, §6, §7, §8, §9, §10

[3] = molecular target: T1, human sodium channels Nav 1.8; assay: Automated whole-cell voltage-clamp (ScreenPatch 384P), Nav 1.8 sodium current, Protocol 1; conditions: CHO cells expressing human Nav 1.8; for IC50: Protocol 1 (holding −90 mV, 0.1 Hz), room temperature, read-out: Nav1.8 IC50; for inhibition at 10 µM: Protocol 1, read-out: Nav1.8 percent of inhibition (IC50 value not available)
Description: as §1, §2, §3, §4, §5, §6, §7, §8, §9, §10

[4] = molecular target: T2, human sodium channels Nav 1.7; assay: Automated whole-cell voltage-clamp (ScreenPatch 384P), Nav 1.7 sodium current, Protocol 1; conditions: CHO cells expressing human Nav 1.7; for IC50: Protocol 1 (holding −90 mV, 0.1 Hz), room temperature, read-out: Nav1.7 IC50; for inhibition at 10 µM: Protocol 1, read-out: Nav1.7 percent of inhibition (IC50 value not available)
Description: as §1, §2, §3, §4, §5, §6, §7, §8, §9, §10

SMILES	IC50 [3]	IC50 [4]	also measured
COc1cc(/C=N/NC(=O)c2nccc(-c3ccc(OC(C)C)cc3)n2)cc(OC)c1 [Compound 62, (E)-N′-(3,5-dimethoxybenzylidene)-4-(4-isopropoxyphenyl)pyrimidine-2-carbohydrazide]	–	–	IC50 [1]: 0.462 µM; IC50 [2]: 0.301 µM
COc1ccc(-c2cccc(C(=O)N/N=C/c3cc(OC)cc(OC)c3)n2)cc1 [Compound 14, (E)-N′-(3,5-dimethoxybenzylidene)-6-(4-methoxyphenyl) picolinohydrazide]	–	–	IC50 [1]: 0.754 µM; IC50 [2]: 1.32 µM
CCCCOc1ccc(-c2nccc(C(=O)N/N=C/c3cc(OC)cc(OC)c3)n2)cc1 [Compound 59, (E)-2-(4-butoxyphenyl)-N′-(3,5-dimethoxybenzylidene)pyrimidine-4-carbohydrazide]	> 10 µM	> 10 µM	–
COc1cc(/C=N/NC(=O)c2cc(-c3ccc(OC(C)C)cc3)ccn2)cc(OC)c1 [Compound 46, (E)-N′-(3,5-dimethoxybenzylidene)-4-(4-isopropoxyphenyl) picolinohydrazide]	> 10 µM	> 10 µM	–
O=C(N/N=C/c1cccs1)c1cc(-c2ccc(Cl)cc2)ccn1 [Compound 43, (E)-4-(4-chlorophenyl)-N′-(thiophen-2-ylmethylene) picolinohydrazide]	> 10 µM	> 10 µM	–
COc1ccc(-c2cc(C(=O)N/N=C/c3cc(OC)cc(OC)c3)ccn2)cc1 [Compound 29, (E)-N′-(3,5-dimethoxybenzylidene)-2-(4-methoxyphenyl) isonicotinohydrazide]	> 10 µM	> 10 µM	–
CCOc1ccc(-c2cccc(C(=O)N/N=C/c3ccccc3F)n2)cc1 [Compound 32, (E)-6-(4-ethoxyphenyl)-N′-(2-fluorobenzylidene) picolinohydrazide]	1.36 µM	1.04 µM	–
O=C(N/N=C/c1cccs1)c1cc(-c2ccc(OC3CCCC3)cc2)ccn1 [Compound 50, (E)-4-(4-(cyclopentyloxy)phenyl)-N′-(thiophen-2-ylmethylene) picolinohydrazide]	> 10 µM	> 10 µM	–
CCOc1ccc(-c2ccc(C(=O)N/N=C/c3cccnc3)o2)cc1 [Compound 6, (E)-5-(4-ethoxyphenyl)-N′-(pyridin-3-ylmethylene) furan-2-carbohydrazide]	–	–	inhibition at 10 µM [3]: < 10%; inhibition at 10 µM [4]: < 10%
CCOc1ccc(-c2ccnc(C(=O)N/N=C/c3cc(OC)cc(OC)c3)c2)cc1 [Compound 44, (E)-N′-(3,5-dimethoxybenzylidene)-4-(4-ethoxyphenyl) picolinohydrazide]	> 10 µM	> 10 µM	–
CCOc1ccc(-c2cccc(C(=O)N/N=C/c3ccccc3Cl)n2)cc1 [Compound 33, (E)-N′-(2-chlorobenzylidene)-6-(4-ethoxyphenyl) picolinohydrazide]	> 10 µM	> 10 µM	–
COc1cc(/C=N/NC(=O)c2ccc(-c3ccc(Cl)cc3)o2)cc(OC)c1 [Compound 2, (E)-5-(4-chlorophenyl)-N′-(3,5-dimethoxybenzylidene) furan-2-carbohydrazide]	> 30 µM	> 30 µM	–
COc1cc(/C=N/N(C)C(=O)c2ccc(-c3ccc(Cl)cc3)o2)cc(OC)c1 [Compound 78, (E)-5-(4-chlorophenyl)-N′-(3,5-dimethoxybenzylidene)-N′-methylfuran-2-carbohydrazide]	> 30 µM	> 30 µM	–
CCOc1ccc(-c2nccc(C(=O)N/N=C/c3cc(OC)cc(OC)c3)n2)cc1 [Compound 53, (E)-N′-(3,5-dimethoxybenzylidene)-2-(4-ethoxyphenyl)pyrimidine-4-carbohydrazide]	> 10 µM	> 10 µM	–
COc1cc(/C=N/NC(=O)c2cncc(-c3ccc(OC4CCCC4)cc3)c2)cc(OC)c1 [Compound 28, (E)-5-(4-(cyclopentyloxy)phenyl)-N′-(3,5-dimethoxybenzylidene) nicotinohydrazide]	> 10 µM	> 10 µM	–
CCCCOc1ccc(-c2ccnc(C(=O)N/N=C/c3cc(OC)cc(OC)c3)n2)cc1 [Compound 67, (E)-4-(4-butoxyphenyl)-N′-(3,5-dimethoxybenzylidene)pyrimidine-2-carbohydrazide]	> 10 µM	> 10 µM	–
CCOc1ccc(-c2ccnc(C(=O)N/N=C/c3cccs3)c2)cc1 [Compound 45, (E)-4-(4-ethoxyphenyl)-N′-(thiophen-2-ylmethylene) picolinohydrazide]	> 10 µM	> 10 µM	–
COc1cc(/C=N/NC(=O)c2cncc(-c3ccc(OC(F)(F)F)cc3)c2)cc(OC)c1 [Compound 17, (E)-N′-(3,5-dimethoxybenzylidene)-5-(4-(trifluoromethoxy)phenyl) nicotinohydrazide]	6.83 µM	7.09 µM	–
COc1cc(/C=N/NC(=O)c2ccnc(-c3ccc(OC(F)(F)F)cc3)c2)cc(OC)c1 [Compound 21, (E)-N′-(3,5-dimethoxybenzylidene)-2-(4-(trifluoromethoxy)phenyl) isonicotinohydrazide]	–	–	inhibition at 10 µM [3]: < 10%; inhibition at 10 µM [4]: < 10%
CCOc1ccc(-c2cccc(C(=O)N/N=C/c3ccccc3OC)n2)cc1 [Compound 36, (E)-6-(4-ethoxyphenyl)-N′-(2-methoxybenzylidene) picolinohydrazide]	8.43 µM	7.06 µM	–
COc1ccc(-c2cncc(C(=O)N/N=C/c3cc(OC)cc(OC)c3)c2)cc1 [Compound 25, (E)-N′-(3,5-dimethoxybenzylidene)-5-(4-methoxyphenyl) nicotinohydrazide]	> 10 µM	> 10 µM	–

Now from value to molecule, other results behind:

IC50 [3]	IC50 [4]	SMILES	also measured
> 10 µM	3.5 µM	CCCOc1ccc(-c2cncc(C(=O)N/N=C/c3cc(OC)cc(OC)c3)c2)cc1 [Compound 26, (E)-N′-(3,5-dimethoxybenzylidene)-5-(4-propoxyphenyl) nicotinohydrazide]	–
> 6.27 µM	> 16.7 µM	CC(C)Oc1ccc(-c2ccc(C(=O)N/N=C/c3cccs3)o2)cc1 [Compound 7, (E)-5-(4-isopropoxyphenyl)-N′-(thiophen-2-ylmethylene) furan-2-carbohydrazide]	–
> 10 µM	> 10 µM	CC(C)Oc1ccc(-c2ccnc(C(=O)N/N=C/c3cccs3)c2)cc1 [Compound 47, (E)-4-(4-isopropoxyphenyl)-N′-(thiophen-2-ylmethylene) picolinohydrazide]	–
> 10 µM	> 10 µM	CCOc1ccc(-c2cccc(C(=O)N/N=C/c3c(F)cccc3Cl)n2)cc1 [Compound 35, (E)-N′-(2-chloro-6-fluorobenzylidene)-6-(4-ethoxyphenyl) picolinohydrazide]	–
> 10 µM	> 10 µM	COc1cc(/C=N/NC(=O)c2ccnc(-c3ccc(OC(C)C)cc3)c2)cc(OC)c1 [Compound 23, (E)-N′-(3,5-dimethoxybenzylidene)-2-(4-isopropoxyphenyl) isonicotinohydrazide]	–
> 10 µM	> 10 µM	CCCOc1ccc(-c2nccc(C(=O)N/N=C/c3cc(OC)cc(OC)c3)n2)cc1 [Compound 58, (E)-N′-(3,5-dimethoxybenzylidene)-2-(4-propoxyphenyl)pyrimidine-4-carbohydrazide]	–
